The supplement of paper PMC11451515

Test system: SEM cells
Experiment: cell viability relative to DMSO control; higher = less cytotoxic
Conditions: 48 h
Procedure, shortened: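 Viability values are per-plate percentages of DMSO wells, with background from cell-free wells. Library compounds in DMSO were pin-dosed, in an 11-point threefold series from 47 μM to 0.79 nM, onto NOMO1 or SEM (500 cells/well) or P12-Ichikawa (1000 cells/well) leukemia cells in 1536-well plates (5 μl). Those cells had been adapted for at least four passages in each medium, and CellTiter-Glo One luminescence was read after 48 h at 37°C.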

[1] = RPMI 5 mM glucose + 10% FBS, 0.000781 µM
[2] = RPMI 5 mM glucose + 10% FBS, 0.00234 µM
[3] = RPMI 5 mM glucose + 10% FBS, 0.00702 µM
[4] = RPMI 5 mM glucose + 10% FBS, 0.0211 µM
[5] = RPMI 5 mM glucose + 10% FBS, 0.0632 µM
[6] = RPMI 5 mM glucose + 10% FBS, 0.19 µM
[7] = RPMI 5 mM glucose + 10% FBS, 0.569 µM
[8] = RPMI 5 mM glucose + 10% FBS, 1.71 µM
[9] = RPMI 5 mM glucose + 10% FBS, 5.12 µM
[10] = RPMI 5 mM glucose + 10% FBS, 15.4 µM
[11] = RPMI 5 mM glucose + 10% FBS, 46.1 µM
[12] = RPMI 5 mM glucose + 10% dialyzed FBS, 0.000781 µM
[13] = RPMI 5 mM glucose + 10% dialyzed FBS, 0.00234 µM
[14] = RPMI 5 mM glucose + 10% dialyzed FBS, 0.00702 µM
[15] = RPMI 5 mM glucose + 10% dialyzed FBS, 0.0211 µM
[16] = RPMI 5 mM glucose + 10% dialyzed FBS, 0.0632 µM
[17] = RPMI 5 mM glucose + 10% dialyzed FBS, 0.19 µM
[18] = RPMI 5 mM glucose + 10% dialyzed FBS, 0.569 µM
[19] = RPMI 5 mM glucose + 10% dialyzed FBS, 1.71 µM
[20] = RPMI 5 mM glucose + 10% dialyzed FBS, 5.12 µM
[21] = RPMI 5 mM glucose + 10% dialyzed FBS, 15.4 µM
[22] = RPMI 5 mM glucose + 10% dialyzed FBS, 46.1 µM
[23] = HPLM + 10% dialyzed FBS, 0.000781 µM
[24] = HPLM + 10% dialyzed FBS, 0.00234 µM
[25] = HPLM + 10% dialyzed FBS, 0.00702 µM
[26] = HPLM + 10% dialyzed FBS, 0.0211 µM
[27] = HPLM + 10% dialyzed FBS, 0.0632 µM
[28] = HPLM + 10% dialyzed FBS, 0.19 µM
[29] = HPLM + 10% dialyzed FBS, 0.569 µM
[30] = HPLM + 10% dialyzed FBS, 1.71 µM
[31] = HPLM + 10% dialyzed FBS, 5.12 µM
[32] = HPLM + 10% dialyzed FBS, 15.4 µM
[33] = HPLM + 10% dialyzed FBS, 46.1 µM

Row | Structure (SMILES) | cell viability [1] [%] | cell viability [2] [%] | cell viability [3] [%] | cell viability [4] [%] | cell viability [5] [%] | cell viability [6] [%] | cell viability [7] [%] | cell viability [8] [%] | cell viability [9] [%] | cell viability [10] [%] | cell viability [11] [%] | cell viability [12] [%] | cell viability [13] [%] | cell viability [14] [%] | cell viability [15] [%] | cell viability [16] [%] | cell viability [17] [%] | cell viability [18] [%] | cell viability [19] [%] | cell viability [20] [%] | cell viability [21] [%] | cell viability [22] [%] | cell viability [23] [%] | cell viability [24] [%] | cell viability [25] [%] | cell viability [26] [%] | cell viability [27] [%] | cell viability [28] [%] | cell viability [29] [%] | cell viability [30] [%] | cell viability [31] [%] | cell viability [32] [%] | cell viability [33] [%]
1 | O=C(CCCCCCC(=O)Nc1ccc([C@H]2O[C@@H](CSc3nc(-c4ccccc4)c(-c4ccccc4)o3)C[C@@H](c3ccc(CO)cc3)O2)cc1)NO | 109 | 124 | 128 | 134 | 121 | 112 | 115 | 114 | 87.4 | 8.6 | 7.11 | 113 | 117 | 135 | 135 | 124 | 133 | 130 | 116 | 77.6 | 9.58 | 7.49 |  |  |  |  |  |  |  |  |  |  | 
2 | c1ccc2c(Cc3c[nH]c4ccccc34)c[nH]c2c1 | 106 | 92.9 | 96 | 104 | 90.3 | 81.1 | 73.8 | 78.6 | 76.4 | 71.5 | 14.6 | 103 | 99 | 109 | 101 | 73.2 | 82.7 | 72.3 | 74.7 | 68.3 | 56.1 | 15.8 | 93.8 | 95.3 | 97.5 | 89.4 | 88.7 | 82.2 | 73.8 | 80.3 | 78.9 | 62.1 | 18.6
3 | Cc1nc2cc(C(=O)N3CCC4(CC3)CC(=O)c3c(cnn3C(C)C)C4)ccc2[nH]1 |  |  |  |  |  |  |  |  |  |  |  | 50 | 109 | 115 | 158 | 110 | 122 | 142 | 122 | 118 | 126 | 51.6 | 55.6 | 106 | 94.6 | 104 | 111 | 114 | 118 | 105 | 106 | 124 | 109
4 | C[C@@H](NCCCc1cccc(C(F)(F)F)c1)c1cccc2ccccc12 | 112 | 124 | 119 | 131 | 107 | 113 | 116 | 114 | 96.5 | 94.3 | 111 |  |  |  |  |  |  |  |  |  |  |  | 121 | 119 | 116 | 117 | 118 | 111 | 120 | 122 | 113 | 106 | 105
5 | Cc1nn(C)c(COc2ccc(N3CCN([S+](=O)([O-])N(C)C)CC3)cc2)c1-c1cccc2c(CCCOc3cccc4ccccc34)c(C(=O)O)n(CCN3CCOCC3)c12 |  |  |  |  |  |  |  |  |  |  |  | 97.3 | 106 | 105 | 106 | 110 | 91.4 | 123 | 114 | 71 | 117 | 21.4 | 86 | 82.9 | 102 | 99.8 | 105 | 100 | 101 | 118 | 96.2 | 112 | 51.7
6 | N[S+](=O)([O-])c1cc2c(cc1Cl)NC(C(Cl)Cl)N[S+]2(=O)[O-] (centres undefined) | 103 | 110 | 90.3 | 107 | 114 | 113 | 122 | 123 | 115 | 129 | 109 | 95.1 | 108 | 113 | 102 | 124 | 122 | 121 | 132 | 142 | 106 | 125 | 89 | 95.6 | 98.8 | 86.3 | 105 | 103 | 102 | 91.5 | 111 | 116 | 111
7 | C[C@H](CCC(=O)O)[C@H]1CCC2C3C[C@H](O)[C@@H]4C[C@H](O)CC[C@]4(C)C3CC[C@@]21C (some centres undefined) | 109 | 122 | 129 | 131 | 135 | 102 | 103 | 117 | 123 | 107 | 108 |  |  |  |  |  |  |  |  |  |  |  |  |  |  |  |  |  |  |  |  |  | 
8 | O=C(Nc1c[nH]nc1-c1nc2cc(CN3CCOCC3)ccc2[nH]1)NC1CC1 | 96.7 | 90 | 107 | 101 | 22.7 | 22.5 | 17.1 | 10.4 | 3.98 | 2.18 | 2.92 | 95.1 | 93.5 | 110 | 77.2 | 26.9 | 26.8 | 22 | 11.7 | 4.09 | 2.03 | 3.29 | 92.3 | 85.9 | 103 | 87.9 | 40.6 | 45.9 | 26 | 16 | 6.08 | 3.77 | 2.78
9 | CCN1C[C@H](C)[N]2C(=C(O)C3=C2\C(=N/N(CC4=CC=C(F)C(=C4)Cl)C3=O)C(=O)NC)C1=O | 115 | 115 | 117 | 103 | 110 | 106 | 105 | 18 | 100 | 103 | 98.9 | 101 | 121 | 125 | 117 | 125 | 121 | 122 | 51.6 | 115 | 112 | 105 | 104 | 103 | 105 | 107 | 106 | 102 | 109 | 50.4 | 98.5 | 100 | 94
10 | COC(=O)Nc1nc2cc(C(=O)c3ccc(F)cc3)ccc2[nH]1 | 95.5 | 105 | 110 | 100 | 92.8 | 95.4 | 77.6 | 40.4 | 32.7 | 28.2 | 52 | 83.6 | 98.8 | 103 | 117 | 115 | 109 | 79.3 | 52 | 45.8 | 37.7 | 52.1 | 103 | 95.4 | 102 | 91.1 | 98.6 | 97.9 | 51.3 | 40.1 | 33.2 | 26.2 | 47.8
11 | CC(C)(S)[C@@H](N)C(=O)O | 75 | 94.5 | 100 | 100 | 64.8 | 110 | 110 | 107 | 113 | 107 | 13.3 | 91.1 | 99.8 | 105 | 99.4 | 84.9 | 103 | 104 | 107 | 122 | 116 | 16.1 | 75.7 | 94.7 | 96 | 109 | 72.8 | 108 | 90.5 | 110 | 97.3 | 104 | 20
12 | CC[S+](=O)([O-])Nc1ccc2c(c1)/C(=C(/Nc1ccc(CN3CCCCC3)cc1)c1ccccc1)C(=O)N2 | 110 | 108 | 111 | 108 | 89.1 | 17.9 | 18.1 | 13.8 | 10 | 3.47 | 2.27 | 118 | 110 | 126 | 103 | 89.7 | 18.5 | 16.3 | 13.6 | 11.5 | 6.15 | 2.34 | 117 | 112 | 108 | 95.5 | 71.3 | 27.8 | 23.9 | 19.4 | 18.5 | 5.02 | 3.36
13 | COc1ccc(C(=O)c2c(C)n(CCN3CCOCC3)c3ccccc23)cc1 | 74.4 | 89 | 88.5 | 88.3 | 91.5 | 93.2 | 77.9 | 85.2 | 87.5 | 72.8 | 66.5 | 95.6 | 88.3 | 97.9 | 93.5 | 97.2 | 97.4 | 96.1 | 83.8 | 102 | 92.1 | 87.8 | 83.5 | 93.6 | 93.3 | 102 | 99.8 | 105 | 84.3 | 108 | 104 | 108 | 103
14 | O=C/1NC(=O)C(=C1C2=CN=C3C=CC=C[N]23)/C4=C[N]5CCN(CC6=C5C4=CC=C6)C(=O)N7CCOCC7 | 96.7 | 106 | 65.2 | 17.9 | 14.7 | 16.1 | 15 | 12.4 | 13.8 | 13.1 | 12.8 | 101 | 102 | 63.8 | 22.2 | 17.1 | 13.1 | 16.3 | 14 | 14.6 | 11.1 | 10.6 | 111 | 104 | 62.9 | 14.5 | 14.7 | 14.1 | 13.7 | 11.3 | 10.6 | 9.94 | 10.3
15 | CCN(CCO)CCCOc1ccc2c(Nc3cc(CC(=O)Nc4cccc(F)c4)[nH]n3)ncnc2c1 | 114 | 94.6 | 118 | 102 | 119 | 76.4 | 22.4 | 19.7 | 21.9 | 12.2 | 5.9 | 100 | 113 | 108 | 109 | 104 | 73.8 | 25.5 | 22.2 | 25 | 13.1 | 4.04 | 118 | 103 | 110 | 119 | 105 | 82.5 | 40.6 | 32.3 | 34.8 | 20.6 | 15.9
16 | CC[N+](CC)(CC)CCOc1cccc(OCC[N+](CC)(CC)CC)c1OCC[N+](CC)(CC)CC | 134 | 118 | 124 | 110 | 123 | 131 | 116 | 119 | 126 | 123 | 111 | 117 | 137 | 121 | 112 | 144 | 144 | 122 | 115 | 128 | 122 | 128 |  |  |  |  |  |  |  |  |  |  | 
17 | CC1=C(/C=C/C(C)=C/C=C/C(C)=C\C(=O)O)C(C)(C)CCC1 | 85 | 93.2 | 77.5 | 112 | 99.5 | 107 | 108 | 107 | 46.1 | 98.2 | 106 | 68.1 | 78.3 | 64.2 | 93.2 | 95.3 | 107 | 83.4 | 75.8 | 41.6 | 77.8 | 85.8 | 82.8 | 84.8 | 67.9 | 103 | 98.1 | 96.7 | 101 | 91.5 | 44.3 | 80.1 | 78.5
